Assay results as given in the supplement of paper PMC10307832.

Tests used:
Experiment in all cases: relative viability (nuclei count vs DMSO), 5 days (fraction); higher = more cells survive
LK-2 = system: LK-2
How it was run: (§1)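 After 5 days of treatment, lung cancer cells in 1536-well plates were fixed and stained in a single step (final 0.05% Triton X-100, 1% formaldehyde, 1 ug/ml Hoechst) and their nuclei counted on 4× images. Treatment had been applied by pin tool the day after seeding as one drug alone or as a fixed anchor-drug dose with five library-drug doses (not always all listed) in √10 steps. Relative viability is the nuclei count of treated wells divided by that of vehicle wells, and values are medians of duplicate plates.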

RERF-LC-KJ = system: RERF-LC-KJ
How it was run: as §1

NCI-H1563 = system: NCI-H1563
How it was run: as §1

HCC-827 = system: HCC-827
How it was run: as §1

PC-3 [JPC-3] = system: PC-3 [JPC-3]
How it was run: as §1

NCI-H520 = system: NCI-H520
How it was run: as §1

NCI-H1437 = system: NCI-H1437
How it was run: as §1

EKVX = system: EKVX
How it was run: as §1

CAL-12T = system: CAL-12T
How it was run: as §1

NCI-H1650 = system: NCI-H1650
How it was run: as §1

HCC-15 = system: HCC-15
How it was run: as §1

Q: How did the relative viability (LK-2; first compound 0.08 µM) turn out when `C=C1C(=O)O[C@@H](CCCCCCCC)[C@@H]1C(=O)O` [C-75] + C[C@@H](Oc1cc(-c2cnn(C3CCNCC3)c2)cnc1N)c1c(Cl)ccc(F)c1Cl [Crizotinib] (partner 1 µM) was run?
A: 0.239

Q: And the relative viability (LK-2; first compound 0.253 µM)?
A: 0.208

Q: What about the relative viability (LK-2; first compound 0.8 µM) of the same compound?
A: 0.231

Q: What about the relative viability (LK-2; first compound 2.53 µM) of the same compound?
A: 0.239

Q: And the relative viability (LK-2; first compound 8 µM)?
A: 0.246

Q: And the relative viability (RERF-LC-KJ; first compound 0.08 µM)?
A: 0.881

Q: And the relative viability (RERF-LC-KJ; first compound 0.253 µM)?
A: 0.846

Q: What about the relative viability (RERF-LC-KJ; first compound 0.8 µM) of the same compound?
A: 0.815

Q: What about the relative viability (RERF-LC-KJ; first compound 2.53 µM) of the same compound?
A: 0.704

Q: And the relative viability (RERF-LC-KJ; first compound 8 µM)?
A: 0.86

Q: And the relative viability (NCI-H1563; first compound 0.08 µM)?
A: 0.801

Q: And the relative viability (NCI-H1563; first compound 0.253 µM)?
A: 0.909

Q: What about the relative viability (NCI-H1563; first compound 0.8 µM) of the same compound?
A: 0.865

Q: And the relative viability (NCI-H1563; first compound 2.53 µM)?
A: 0.826

Q: What about the relative viability (NCI-H1563; first compound 8 µM) of the same compound?
A: 0.931

Q: And the relative viability (HCC-827; first compound 0.08 µM)?
A: 0.917

Q: And the relative viability (HCC-827; first compound 0.253 µM)?
A: 0.88

Q: What about the relative viability (HCC-827; first compound 0.8 µM) of the same compound?
A: 0.872

Q: What about the relative viability (HCC-827; first compound 2.53 µM) of the same compound?
A: 0.973

Q: What about the relative viability (HCC-827; first compound 8 µM) of the same compound?
A: 0.946

Q: What about the relative viability (PC-3 [JPC-3]; first compound 0.08 µM) of the same compound?
A: 1.01

Q: And the relative viability (PC-3 [JPC-3]; first compound 0.253 µM)?
A: 0.99

Q: What about the relative viability (PC-3 [JPC-3]; first compound 0.8 µM) of the same compound?
A: 0.98

Q: And the relative viability (PC-3 [JPC-3]; first compound 2.53 µM)?
A: 1.05

Q: And the relative viability (PC-3 [JPC-3]; first compound 8 µM)?
A: 1.14

Q: And the relative viability (NCI-H520; first compound 0.08 µM)?
A: 0.607

Q: What about the relative viability (NCI-H520; first compound 0.253 µM) of the same compound?
A: 0.841

Q: What about the relative viability (NCI-H520; first compound 0.8 µM) of the same compound?
A: 0.673

Q: What about the relative viability (NCI-H520; first compound 2.53 µM) of the same compound?
A: 0.706

Q: And the relative viability (NCI-H520; first compound 8 µM)?
A: 0.651

Q: What about the relative viability (NCI-H1437; first compound 0.08 µM) of the same compound?
A: 0.859

Q: And the relative viability (NCI-H1437; first compound 0.253 µM)?
A: 0.968

Q: What about the relative viability (NCI-H1437; first compound 0.8 µM) of the same compound?
A: 0.936

Q: And the relative viability (NCI-H1437; first compound 2.53 µM)?
A: 0.983

Q: And the relative viability (NCI-H1437; first compound 8 µM)?
A: 0.936

Q: And the relative viability (EKVX; first compound 0.08 µM)?
A: 1.01

Q: And the relative viability (EKVX; first compound 0.253 µM)?
A: 0.983

Q: And the relative viability (EKVX; first compound 0.8 µM)?
A: 0.897

Q: And the relative viability (EKVX; first compound 2.53 µM)?
A: 0.85

Q: And the relative viability (EKVX; first compound 8 µM)?
A: 0.893

Q: And the relative viability (CAL-12T; first compound 0.08 µM)?
A: 0.597

Q: What about the relative viability (CAL-12T; first compound 0.253 µM) of the same compound?
A: 0.626

Q: What about the relative viability (CAL-12T; first compound 0.8 µM) of the same compound?
A: 0.586

Q: What about the relative viability (CAL-12T; first compound 8 µM) of the same compound?
A: 0.849

Q: And the relative viability (NCI-H1650; first compound 0.08 µM)?
A: 0.961

Q: What about the relative viability (NCI-H1650; first compound 0.253 µM) of the same compound?
A: 1.1

Q: What about the relative viability (NCI-H1650; first compound 0.8 µM) of the same compound?
A: 0.972

Q: And the relative viability (NCI-H1650; first compound 2.53 µM)?
A: 1.12

Q: What about the relative viability (NCI-H1650; first compound 8 µM) of the same compound?
A: 1.21

Q: And the relative viability (HCC-15; first compound 0.08 µM)?
A: 0.82

Q: And the relative viability (HCC-15; first compound 0.253 µM)?
A: 0.885

Q: And the relative viability (HCC-15; first compound 0.8 µM)?
A: 0.764

Q: And the relative viability (HCC-15; first compound 2.53 µM)?
A: 0.699

Q: And the relative viability (HCC-15; first compound 8 µM)?
A: 0.835
